Strand notation (5' to 3'): a small letter for the sugar, then the base; units joined by * are phosphorothioate-linked, units joined directly phosphodiester-linked; [ ] holds rarer units or linkages, { } end groups; capitals alone tell only the bases. e = 2'-O-(2-methoxyethyl) (MOE); [5mC] = 5-methylcytosine; d = 2'-deoxy (DNA)
Columns and labels:
LIM domain kinase 1 mRNA = assay: Antisense inhibition of LIM domain kinase 1 expression, dose response in A549 cells, real-time quantitative PCR; type: cell-based, human; details: for Percent Inhibition of LIM Domain Kinase 1 mRNA Levels: averaged from two experiments, normalized to untreated control; for reduction of LIM domain kinase 1 mRNA levels (dose response): 6, 25, 100 and 400 nM
Method: When cells reached 70% confluency, they were treated with oligonucleotide. […] Cells were harvested 16-24 hours after oligonucleotide treatment.
PCR reagents were obtained from Invitrogen Corporation, (Carlsbad, Calif.).
Probes and primers to human LIM domain kinase 1 were designed to hybridize to a human LIM domain kinase 1 sequence, using published sequence information (GenBank accession number D26309.1, incorporated herein as SEQ ID NO:4). For human LIM domain kinase 1 the PCR primers were: forward primer: […] (SEQ ID NO: 5) reverse primer: […] (SEQ ID NO: 6) and the PCR probe was: FAM-[…]-TAMRA (SEQ ID NO: 7) where FAM is the fluorescent dye and TAMRA is the quencher dye.
In accordance with the present invention, three of the oligonucleotides targeted to LIM domain kinase 1: ISIS 206212 ([…], SEQ ID NO: 67), ISIS 206219 ([…], SEQ ID NO: 74) and ISIS 206214 ([…], SEQ ID NO: 69) were investigated in a dose response experiment. The scrambled control oligonucleotides used in the dose response study were ISIS 129695 ([…], SEQ ID NO: 147), and ISIS 114845 ([…], SEQ ID NO: 148).
All cytidine residues are 5-methylcytidines.
In the dose-response experiment, with mRNA levels as the endpoint, A549 cells were treated with ISIS 206212, ISIS 206219, ISIS 206214 and control oligonucleotides at doses of 6, 25, 100 and 400 nM oligonucleotide. Data were obtained by real-time quantitative PCR as described in other examples herein and are averaged from two experiments with mRNA levels in the treatment groups, (including the scrambled control), being normalized to an untreated control group.

[1] = system: human LIM domain kinase 1 mRNA; assay: Antisense inhibition of human LIM domain kinase 1 mRNA levels, quantitative real-time PCR, A549 cells (screen); type: cell-based; details: for % INHIB (inhibition of human LIM domain kinase 1 mRNA levels): quantitative real-time PCR, averages from two experiments, screening concentration not given (50 nM to 300 nM used herein); for inhibition of human LIM domain kinase 1 expression (text summary of Table 1): real-time PCR, bound stated
Outline: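 A549 cells at 70% confluency treated with antisense oligonucleotides (all cytidines 5-methylcytidine), harvested 16-24 h later. LIMK1 mRNA measured by real-time RT-PCR with FAM/TAMRA probe, normalized to total RNA by RiboGreen; values are averages of two experiments.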

Substance | Percent Inhibition of LIM Domain Kinase 1 mRNA Levels (LIM domain kinase 1 mRNA; dose 6 nM) [%] | Percent Inhibition of LIM Domain Kinase 1 mRNA Levels (LIM domain kinase 1 mRNA; dose 25 nM) [%] | Percent Inhibition of LIM Domain Kinase 1 mRNA Levels (LIM domain kinase 1 mRNA; dose 100 nM) [%] | Percent Inhibition of LIM Domain Kinase 1 mRNA Levels (LIM domain kinase 1 mRNA; dose 400 nM) [%] | % INHIB (inhibition of human LIM domain kinase 1 mRNA levels) [1] [%] | inhibition of human LIM domain kinase 1 expression (text summary of Table 1) [1] | reduction of LIM domain kinase 1 mRNA levels (dose response) (LIM domain kinase 1 mRNA)
114845 (eT*eA*e[5mC]*eG*eT*d[5mC]*d[5mC]*dG*dG*dA*dG*dG*d[5mC]*dG*dT*eA*e[5mC]*eG*e[5mC]*e[5mC]) [compound 114845] | 0 | 0 | 0 | 24 | – | – | –
129695 (eT*eT*e[5mC]*eT*eA*d[5mC]*d[5mC]*dT*d[5mC]*dG*d[5mC]*dG*d[5mC]*dG*dA*eT*eT*eT*eA*e[5mC]) [compound 129695] | 2 | 0 | 12 | 62 | – | – | –
206212 (antisense eA*e[5mC]*eT*e[5mC]*e[5mC]*d[5mC]*d[5mC]*dA*dT*dT*dT*dG*dG*dT*dT*e[5mC]*e[5mC]*eT*eG*eG) [compound 206212] | 0 | 73 | 91 | 97 | 91 | – | –
206214 (antisense e[5mC]*e[5mC]*eG*eG*e[5mC]*d[5mC]*dA*dG*dG*dG*d[5mC]*dA*d[5mC]*d[5mC]*dG*e[5mC]*eA*eG*e[5mC]*eT) [compound 206214] | 0 | 46 | 84 | 98 | 87 | – | –
206219 (antisense eT*eG*e[5mC]*eA*e[5mC]*dT*dG*dA*dG*dA*dA*dA*dG*d[5mC]*dT*eT*e[5mC]*eA*e[5mC]*eA) [compound 206219] | 0 | 67 | 84 | 93 | 89 | – | –
actccccatttggttcctgg (eA*e[5mC]*eT*e[5mC]*e[5mC]*d[5mC]*d[5mC]*dA*dT*dT*dT*dG*dG*dT*dT*e[5mC]*e[5mC]*eT*eG*eG; antisense) [ISIS 206212] | – | – | – | – | – | at least 65% | capable of reducing LIM domain kinase 1 mRNA levels in a dose-dependent manner
ccggccagggcaccgcagct (e[5mC]*e[5mC]*eG*eG*e[5mC]*d[5mC]*dA*dG*dG*dG*d[5mC]*dA*d[5mC]*d[5mC]*dG*e[5mC]*eA*eG*e[5mC]*eT; antisense) [ISIS 206214] | – | – | – | – | – | at least 65% | capable of reducing LIM domain kinase 1 mRNA levels in a dose-dependent manner
tgcactgagaaagcttcaca (eT*eG*e[5mC]*eA*e[5mC]*dT*dG*dA*dG*dA*dA*dA*dG*d[5mC]*dT*eT*e[5mC]*eA*e[5mC]*eA; antisense) [ISIS 206219] | – | – | – | – | – | at least 65% | capable of reducing LIM domain kinase 1 mRNA levels in a dose-dependent manner

Source: patent publication US20040014047A1, “Antisense modulation of LIM domain kinase 1 expression” (Isis Pharmaceuticals Inc., priority 2002, published 2004)
